Data taken from publication PMC3651043 (Biochemistry, 2013).

Tests used:
[1] = biological target: pKSI (ketosteroid isomerase from Pseudomonas putida) (Pseudomonas putida, UniProt P07445, D40A); assay: intrinsic fluorescence quenching; format: binding
[2] = biological target: tKSI (ketosteroid isomerase from Comamonas testosteroni) (Comamonas testosteroni, UniProt P00947); assay: intrinsic fluorescence quenching; format: binding
[3] = biological target: pKSI (ketosteroid isomerase from Pseudomonas putida) (Pseudomonas putida, UniProt P07445); assay: intrinsic fluorescence quenching; format: binding
Sequence of pKSI (ketosteroid isomerase from Pseudomonas putida) (Pseudomonas putida, UniProt P07445) (P07445 whole entry): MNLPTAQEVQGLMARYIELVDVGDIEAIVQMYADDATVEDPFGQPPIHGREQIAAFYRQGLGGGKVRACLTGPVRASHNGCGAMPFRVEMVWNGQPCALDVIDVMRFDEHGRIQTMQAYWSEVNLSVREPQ

[4] = biological target: tKSI (ketosteroid isomerase from Comamonas testosteroni) (Comamonas testosteroni, UniProt P00947, D38A); assay: intrinsic fluorescence quenching; format: binding
Sequence of tKSI (ketosteroid isomerase from Comamonas testosteroni) (Comamonas testosteroni, UniProt P00947, D38A) (P00947 whole entry D38A): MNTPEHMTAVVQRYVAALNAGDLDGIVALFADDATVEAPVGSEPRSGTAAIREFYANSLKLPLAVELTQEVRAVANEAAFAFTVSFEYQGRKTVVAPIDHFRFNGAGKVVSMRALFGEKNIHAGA

[5] = biological target: pKSI (ketosteroid isomerase from Pseudomonas putida) (Pseudomonas putida, UniProt P07445, D40N); assay: biochemical
Sequence of pKSI (ketosteroid isomerase from Pseudomonas putida) (Pseudomonas putida, UniProt P07445, D40N) (P07445 whole entry D40N): as the sequence (P07445 whole entry) above, with D40N counted along it

[6] = biological target: tKSI (ketosteroid isomerase from Comamonas testosteroni) (Comamonas testosteroni, UniProt P00947, D38N); assay: biochemical
Sequence of tKSI (ketosteroid isomerase from Comamonas testosteroni) (Comamonas testosteroni, UniProt P00947, D38N) (P00947 whole entry D38N): as the sequence (P00947 whole entry D38A) above, with A38N counted along it

Sequence of pKSI (ketosteroid isomerase from Pseudomonas putida) (Pseudomonas putida, UniProt P07445, D40A) (P07445 whole entry D40A): as the sequence (P07445 whole entry) above, with D40A counted along it
Sequence of tKSI (ketosteroid isomerase from Comamonas testosteroni) (Comamonas testosteroni, UniProt P00947) (P00947 whole entry): as the sequence (P00947 whole entry D38A) above, with A38D counted along it

C[C@]12CCC(=O)C=C1CC[C@@H]1[C@@H]2CC[C@]2(C)C(=O)CC[C@@H]12 [4-androstene-3,17-dione]
Kd [1]: 0.385 µM | Kd [2]: 62.5 µM | Kd [3]: 62.5 µM | Kd [4]: 0.909 µM | Kd [5]: 1.33 µM | Kd [6]: 15.9 µM
